Reference: publication PMC2994747, “Molecular Characterization of c-Abl/c-Src Kinase Inhibitors Targeted against Murine Tumour Progenitor Cells that Express Stem Cell Markers” (PLoS ONE, 2010)

Assays:
BetaD5 [1] = test: Cell cycle analysis by flow cytometry; assay type: cell-based, mouse; details: IC50 concentration, 96 h
Method in brief: (§1)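 DNA-staining kit protocol for cell-cycle distribution: harvested cells go through a three-solution sequence, starting with 10 min at room temperature in solution A and ending at 4°C without light, then are analysed on a flow cytometer.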

GammaA3 [2] = test: Cell cycle analysis by flow cytometry; assay type: cell-based, mouse; details: IC50 concentration, 96 h
Method in brief: as §1

GammaD12 [3] = test: Cell cycle analysis by flow cytometry; assay type: cell-based, mouse; details: IC50 concentration, 96 h
Method in brief: as §1

A2C12 = test: Western blot, semi-quantitative protein expression; assay type: cell-based, mouse
Procedure: (§2) For the Western Blot analysis, cells were rinsed and lysed as previously described. An amount of 25 µg protein was used for SDS-PAGE. Antibodies for c-Abl (sc-131), Actin (sc-1616), Cdc2-p34 (sc-8395), EPS15 (sc-1840), FAK (sc-558), c-Fos (sc-52), p38 (sc-7972), p53 (sc-6243) and STAT5 (sc-835x) were obtained from Santa Cruz (Santa Cruz Biotechnology, Heidelberg, Germany), while c-Src (2109) and phospho-Src Y416 (2101) were purchased from Cell Signaling (Cell Signaling Technology, Frankfurt a. M., Germany). The EGFR (06-847), phospho-EGFR Y992 (07-821) and phospho-EGFR Y1045 (04-284) stem from Upstate (Upstate, Schwalbach, Germany) and the hnRNP-K (A300-676A) from Bethyl Labs (Bethyl Laboratories, Montgomery, Texas, USA). Finally p73 (IMG-246) was supplied by Imgenex (Imgenex, Hamburg, Germany). Depending on the primary antibody the secondary antibodies were either horseradish peroxidase-conjugated anti-mouse (AP 160P), anti-rabbit (AP 132P) or anti-sheep (AP 147P) (Chemicon, Schwalbach, Germany).
(§3) Semi-quantitative analysis were carried out with Kodak 1D Image Analysis Software in reference to the vehicle treated control cells (see supplementary table S7).

BetaD5 [4] = test: Western blot, semi-quantitative protein expression; assay type: cell-based, mouse
Procedure: as §2, §3

GammaA3 [5] = test: Western blot, semi-quantitative protein expression; assay type: cell-based, mouse
Procedure: as §2, §3

GammaD12 [6] = test: Western blot, semi-quantitative protein expression; assay type: cell-based, mouse
Procedure: as §2, §3

A549 = test: Western blot, semi-quantitative protein expression; assay type: cell-based, human
Procedure: as §2, §3

CaCo2 = test: Western blot, semi-quantitative protein expression; assay type: cell-based, human
Procedure: as §2, §3

CSc1nc(NCCc2ccc(Cl)cc2)c2cnn(CC(Cl)c3ccccc3)c2n1 (stereo not drawn) [Si57]
Cells in G1 phase (BetaD5 [1]): 52.5%
Cells in G2 phase (BetaD5 [1]): 32.3%
Cells in S phase (BetaD5 [1]): 15.4%
Cells in G1 phase (GammaA3 [2]): 59.6%
Cells in G2 phase (GammaA3 [2]): 18%
Cells in S phase (GammaA3 [2]): 22.4%
Cells in G1 phase (GammaD12 [3]): 33%
Cells in G2 phase (GammaD12 [3]): 6%
Cells in S phase (GammaD12 [3]): 61.1%
Actin protein expression (A2C12): 97
EGFR Y992-p protein expression (A2C12): 117
EGFR Y1045-p protein expression (A2C12): 29
EGFR protein expression (A2C12): 66
EPS15 protein expression (A2C12): 89
FAK protein expression (A2C12): 47
STAT5 protein expression (A2C12): 104
c-Abl protein expression (A2C12): 49
c-Fos protein expression (A2C12): 82
c-Src protein expression (A2C12): 92
hnRNP-K protein expression (A2C12): 104
p38 protein expression (A2C12): 59
p53 protein expression (A2C12): 60
p73 protein expression (A2C12): 40
Actin protein expression (BetaD5 [4]): 98
EGFR Y992-p protein expression (BetaD5 [4]): 116
EGFR Y1045-p protein expression (BetaD5 [4]): 65
EGFR protein expression (BetaD5 [4]): 61
EPS15 protein expression (BetaD5 [4]): 781
FAK protein expression (BetaD5 [4]): 98
STAT5 protein expression (BetaD5 [4]): 192
c-Abl protein expression (BetaD5 [4]): 89
c-Fos protein expression (BetaD5 [4]): 58
c-Src Y416-p protein expression (BetaD5 [4]): 19
c-Src protein expression (BetaD5 [4]): 153
hnRNP-K protein expression (BetaD5 [4]): 126
p38 protein expression (BetaD5 [4]): 76
p53 protein expression (BetaD5 [4]): 248
Actin protein expression (GammaA3 [5]): 105
EGFR Y992-p protein expression (GammaA3 [5]): 90
EGFR Y1045-p protein expression (GammaA3 [5]): 15
EGFR protein expression (GammaA3 [5]): 39
EPS15 protein expression (GammaA3 [5]): 102
FAK protein expression (GammaA3 [5]): 101
STAT5 protein expression (GammaA3 [5]): 93
c-Abl protein expression (GammaA3 [5]): 62
c-Fos protein expression (GammaA3 [5]): 79
c-Src Y416-p protein expression (GammaA3 [5]): 256
c-Src protein expression (GammaA3 [5]): 104
hnRNP-K protein expression (GammaA3 [5]): 93
p38 protein expression (GammaA3 [5]): 38
p53 protein expression (GammaA3 [5]): 54
Actin protein expression (GammaD12 [6]): 106
EGFR Y992-p protein expression (GammaD12 [6]): 62
EGFR Y1045-p protein expression (GammaD12 [6]): 96
EGFR protein expression (GammaD12 [6]): 89
EPS15 protein expression (GammaD12 [6]): 135
FAK protein expression (GammaD12 [6]): 106
STAT5 protein expression (GammaD12 [6]): 110
c-Abl protein expression (GammaD12 [6]): 212
c-Fos protein expression (GammaD12 [6]): 70
c-Src Y416-p protein expression (GammaD12 [6]): 90
c-Src protein expression (GammaD12 [6]): 103
hnRNP-K protein expression (GammaD12 [6]): 100
p38 protein expression (GammaD12 [6]): 29
p53 protein expression (GammaD12 [6]): 58
Actin protein expression (A549): 92
Cdc2-p34 protein expression (A549): 55
EGFR Y992-p protein expression (A549): 58
EGFR Y1045-p protein expression (A549): 6.66
EGFR protein expression (A549): 9
EPS15 protein expression (A549): 70
FAK protein expression (A549): 154
STAT5 protein expression (A549): 34
c-Abl protein expression (A549): 43
c-Fos protein expression (A549): 49
c-Src Y416-p protein expression (A549): 65
c-Src protein expression (A549): 100
hnRNP-K protein expression (A549): 83
p38 protein expression (A549): 27
p53 protein expression (A549): 33
p73 protein expression (A549): 24
Actin protein expression (CaCo2): 131
Cdc2-p34 protein expression (CaCo2): 119
EGFR Y992-p protein expression (CaCo2): 163
EGFR Y1045-p protein expression (CaCo2): 259
EGFR protein expression (CaCo2): 37
EPS15 protein expression (CaCo2): 122
FAK protein expression (CaCo2): 111
STAT5 protein expression (CaCo2): 123
c-Abl protein expression (CaCo2): 217
c-Fos protein expression (CaCo2): 129
c-Src Y416-p protein expression (CaCo2): 155
c-Src protein expression (CaCo2): 106
hnRNP-K protein expression (CaCo2): 98
p38 protein expression (CaCo2): 84
p53 protein expression (CaCo2): 70
p73 protein expression (CaCo2): 78

Clc1cccc(Nc2nc(SC3CCCC3)nc3c2cnn3CC(Cl)c2ccccc2)c1 (stereo not drawn) [Si135]
Cells in G1 phase (BetaD5 [1]): 73%
Cells in G2 phase (BetaD5 [1]): 22.3%
Cells in S phase (BetaD5 [1]): 4.7%
Cells in G1 phase (GammaA3 [2]): up to 75%
Cells in G2 phase (GammaA3 [2]): 14.9%
Cells in S phase (GammaA3 [2]): 10%
Cells in G1 phase (GammaA3 [2]; listed as Si 135): 75.1%
Cells in G1 phase (GammaD12 [3]): 35.5%
Cells in G2 phase (GammaD12 [3]): 12.5%
Cells in S phase (GammaD12 [3]): 51.9%
Actin protein expression (A2C12): 88
EGFR Y992-p protein expression (A2C12): 79
EGFR Y1045-p protein expression (A2C12): 69
EGFR protein expression (A2C12): 30
EPS15 protein expression (A2C12): 83
FAK protein expression (A2C12): 71
STAT5 protein expression (A2C12): 95
c-Abl protein expression (A2C12): 64
c-Fos protein expression (A2C12): 52
c-Src protein expression (A2C12): 95
hnRNP-K protein expression (A2C12): 87
p38 protein expression (A2C12): 33
p53 protein expression (A2C12): 58
p73 protein expression (A2C12): 43
Actin protein expression (BetaD5 [4]): 92
EGFR Y992-p protein expression (BetaD5 [4]): 68
EGFR Y1045-p protein expression (BetaD5 [4]): 148
EGFR protein expression (BetaD5 [4]): 116
EPS15 protein expression (BetaD5 [4]): 759
FAK protein expression (BetaD5 [4]): 114
STAT5 protein expression (BetaD5 [4]): 163
c-Abl protein expression (BetaD5 [4]): 101
c-Fos protein expression (BetaD5 [4]): 98
c-Src Y416-p protein expression (BetaD5 [4]): 20
c-Src protein expression (BetaD5 [4]): 135
hnRNP-K protein expression (BetaD5 [4]): 115
p38 protein expression (BetaD5 [4]): 56
p53 protein expression (BetaD5 [4]): 119
Actin protein expression (GammaA3 [5]): 101
EGFR Y992-p protein expression (GammaA3 [5]): 70
EGFR Y1045-p protein expression (GammaA3 [5]): 31
EGFR protein expression (GammaA3 [5]): 25
EPS15 protein expression (GammaA3 [5]): 102
FAK protein expression (GammaA3 [5]): 104
STAT5 protein expression (GammaA3 [5]): 80
c-Abl protein expression (GammaA3 [5]): 65
c-Fos protein expression (GammaA3 [5]): 112
c-Src Y416-p protein expression (GammaA3 [5]): 216
c-Src protein expression (GammaA3 [5]): 107
hnRNP-K protein expression (GammaA3 [5]): 90
p38 protein expression (GammaA3 [5]): 48
p53 protein expression (GammaA3 [5]): 78
Actin protein expression (GammaD12 [6]): 110
EGFR Y992-p protein expression (GammaD12 [6]): 181
EGFR Y1045-p protein expression (GammaD12 [6]): 132
EGFR protein expression (GammaD12 [6]): 95
EPS15 protein expression (GammaD12 [6]): 149
FAK protein expression (GammaD12 [6]): 117
STAT5 protein expression (GammaD12 [6]): 118
c-Abl protein expression (GammaD12 [6]): 152
c-Fos protein expression (GammaD12 [6]): 103
c-Src Y416-p protein expression (GammaD12 [6]): 140
c-Src protein expression (GammaD12 [6]): 89
hnRNP-K protein expression (GammaD12 [6]): 75
p38 protein expression (GammaD12 [6]): 18
p53 protein expression (GammaD12 [6]): 108
Actin protein expression (A549): 98
Cdc2-p34 protein expression (A549): 82
EGFR Y992-p protein expression (A549): 128
EGFR Y1045-p protein expression (A549): 23
EGFR protein expression (A549): 45
EPS15 protein expression (A549): 56
FAK protein expression (A549): 130
STAT5 protein expression (A549): 80
c-Abl protein expression (A549): 88
c-Fos protein expression (A549): 50
c-Src Y416-p protein expression (A549): 110
c-Src protein expression (A549): 94
hnRNP-K protein expression (A549): 83
p38 protein expression (A549): 62
p53 protein expression (A549): 59
p73 protein expression (A549): 55
Actin protein expression (CaCo2): 120
Cdc2-p34 protein expression (CaCo2): 74
EGFR Y992-p protein expression (CaCo2): 113
EGFR Y1045-p protein expression (CaCo2): 104
EGFR protein expression (CaCo2): 44
EPS15 protein expression (CaCo2): 79
FAK protein expression (CaCo2): 82
STAT5 protein expression (CaCo2): 120
c-Abl protein expression (CaCo2): 155
c-Fos protein expression (CaCo2): 164
c-Src Y416-p protein expression (CaCo2): 129
c-Src protein expression (CaCo2): 125
hnRNP-K protein expression (CaCo2): 90
p38 protein expression (CaCo2): 64
p53 protein expression (CaCo2): 69
p73 protein expression (CaCo2): 66
